Results from patent publication US20170049843A1, “Hepatocyte Growth Factor Mimics as Therapeutic Agents” (WASHINGTON STATE UNIVERSITY, priority 2011, published 2017).
“And” between values parts separate entries of the source, which are not always exact repeats. Equal entries are not always repeated. Where a SMILES comes first, the peptide text is derived from it. [ ]: non-standard residue; d: D form. The star is where a group is joined. Nle = CCCC[C@H](N)C(=O)O; Hexanoyl = CCCCCC(=O)*; Ahx = NCCCCCC(=O)O

What was measured:
Format in all cases: cell-based, rat
c-Met receptor = test: Spinogenesis after c-Met knock-down with shRNA; conditions: 10 ng/ml HGF or 10^−12 M analog
Excerpt: (§1) Neurons were transfected with mRFP-β-actin on day in vitro 6 (DIV6) using LipofectAMINE™ 2000 (Invitrogen) according to the manufacturer's protocol. This protocol yielded the desired 3-5% transfection efficiency thus enabling the visualization of individual neurons. Higher efficiencies obscured the dendritic arbor of individual neurons. Expression of fluorescently tagged actin allowed clear visualization of dendritic spines, as dendritic spines are enriched in actin. On DIV7 the cells were treated with vehicle (H20) or peptides (as described in the text) added to media. On DIV12 the neurons were fixed (4% paraformaldehyde, 3% sucrose, 60 mM PIPES, 25 mM HEPES, 5 mM EGTA, 1 mM MgCl2, pH 7.4) for 20 min at room temperature and mounted. Slides were dried for at least 20 hours at 4° C. and fluorescent images were obtained with Slidebook 4.2 Digital Microscopy Software driving an Olympus IX81 inverted confocal microscope with a 60× oil immersion lens, NA 1.4 and resolution 0.280 μm Dendritic spine density was measured on primary and secondary dendrites at a distance of at least 150 μm from the soma. Five 50 μm long segments of dendrite from at least 10 neurons per data point were analyzed for each data point reported. Each experiment was repeated at least three times using independent culture preparations. Dendrite length was determined using the National Institutes of Health's Image J 1.41o program (NIH, Bethesda, Md.) and the neurite tracing program Neuron J (Meijering, Jacob et al. 2004) Spines were manually counted.
A target sequence for c-Met was designed using RNAi central design program (see the website located at cancan.cshl.edu/). […]. The shRNA was transfected into cells using the lipofectamine method described above. Verification of receptor knockdown was done by creating a c-Met-6-Myc tagged gene product using the Gateway cloning system (Invitrogen). The Met protein coding sequence was cloned from rat whole brain cDNA using primers obtained from Integrated DNA Technologies, Inc. The amplified product was gel purified and a band corresponding to […] band excised and cloned into a PCAGGS-6-Myc destination vector (Gateway).
To irrefutably confirm that the AngIV analogues act via the HGF/c-met system an shRNA for c-Met was employed to knock-down the receptor. Dissociated hippocampal neurons were transfected with mRFP-β-actin and shMet RNA and receptor knock-down was allowed to take place for 48 hours prior to stimulating with 0.5 μg (per well) HGF (10 ng/ml), Dihexa or Nle1-AngIV (both at 10^−12 M). Longer exposure appeared to be detrimental or toxic to the neurons. Effective c-Met receptor knock-down was verified by transfecting human embryonic kidney (HEK) cells with (0.1 μg) 6-Myc-tagged c-Met, (0.1 μg)shMet or mRFP-β-actin alone. Successful knockdown was confirmed by immunoblotting for Myc tagged c-met using an anti-Myc antibody (FIG. 19).

hippocampal neurons [1] = test: Dendritic spine head width in hippocampal neurons; conditions: 10^−12 M; control 0.67 μm
Excerpt: as §1, with “On DIV12 the neurons were fixed (4% paraformaldehyde, 3% sucrose, 60 mM PIPES, 25 mM HEPES, 5 mM EGTA, 1 mM MgCl2, pH 7.4) for 20 min at room temperature and mounted.” left out, “Each experiment was repeated at least three times using independent culture preparations.” left out, “counted. […]” for “counted.”

hippocampal neurons [2] = test: Spinogenesis in mRFP-β-actin transfected dissociated hippocampal neurons; conditions: 5 days; for spine numbers per 50 μm dendrite length: biologically active doses, printed as 10^−13 M, control 17.4
Procedure: Hippocampal neurons ([…] cells per square cm) were cultured from P1 Sprague Dawley rats on plates coated with poly-L-lysine from Sigma (St. Louis, Mo.; molecular weight 300,000). Hippocampal neurons were maintained in Neurobasal A media from Invitrogen (Carlsbad, Calif.) supplemented with B27 from Invitrogen, 0.5 mM L-glutamine, and […] cytosine-D-arabinofuranoside from Sigma added at 2 days in vitro. Hippocampal neurons were then cultured a further 3-7 days, at which time they were either transfected or treated with various pharmacological reagents as described in (Wayman, Davare et al. 2008).
as §1
Hippocampal neurons (2×10^5 cells per square centimeter) were cultured from P1-2 Sprague Dawley rats on plates coated with poly-L-lysine from Sigma (St. Louis, Mo.; molecular weight 300,000). Hippocampal neurons were maintained in Neurobasal A media from Invitrogen (Carlsbad, Calif.) supplemented with B27 from Invitrogen, 0.5 mM L-glutamine, and […] cytosine-D-arabinofuranoside from Sigma added at 2 days in vitro. Hippocampal neurons were then cultured a further 3-7 days, at which time they were either transfected or treated with various pharmacological reagents as described in the text or figure legends.

[3] = neurons transfected with mRFP-β-actin alone, 48 hours, control 13.2
[4] = neurons transfected with mRFP-β-actin and shMet, control 13.5

Compound | mean spine numbers per 50 μm dendrite length (c-Met receptor; [3]) | mean spine numbers per 50 μm dendrite length (c-Met receptor; [4]) | average spine head width (hippocampal neurons [1]) | spine numbers per 50 μm dendrite length (hippocampal neurons [2]) | mean spine numbers per 50 μm dendrite length (hippocampal neurons [2]; HGF 5 ng/ml) | mean spine numbers per 50 μm dendrite length (hippocampal neurons [2]; HGF 10 ng/ml) | mean spine numbers per 50 μm dendrite length (hippocampal neurons [2]; HGF 20 ng/ml)
CCCC[C@H](N)C(=O)N[C@@H](Cc1ccc(O)cc1)C(=O)N[C@H](C(=O)N[C@@H](Cc1c[nH]cn1)C(=O)N1CCC[C@H]1C(=O)N[C@@H](Cc1ccccc1)C(=O)O)[C@@H](C)CC [Nle1-AngIV, reference compound] (H-[Nle]YIHPF-OH; N-terminus and C-terminus assumed) | 20.0 | 12.1 | 0.87 μm | 29.8 | – | – | –
HGF: recombinant hepatocyte growth factor (R&D Systems), ligand of c-Met | 20.6 | 12.4 | – | – | 24.7 | 27.5 and 33 and 29.3 | 27.0
CCCCCC(=O)N[C@@H](Cc1ccc(O)cc1)C(=O)N[C@H](C(=O)NCCCCCC(N)=O)[C@@H](C)CC [Dihexa, N-hexanoic-Tyr-Ile-(6)-aminohexanoic amide] (Hexanoyl-Tyr-Ile-[Ahx]-NH2) | 21.8 | 12.0 | 0.80 μm | 26.4 | – | – | –
